From ChEMBL document CHEMBL1150903, “Complement-inhibiting cucurbitacin glycosides from Picria fel-terrae” (J Nat Prod, 1998)
Activity calls are given as the source filed them. No cut-off for these calls is given here.

Experiments:
[1] = Growth inhibition of human NCI60 cells; format: functional
Candida albicans = assay: Antifungal activity against Candida albicans; format: functional
Trichophyton rubrum = assay: Antifungal activity against Trichophyton rubrum; format: functional
Human alphaherpesvirus 1 = assay: Antiviral activity against HSV1 assessed as reduction factor of viral titer at 100 ug/ml; format: functional, organism-based
SF-295 = assay: Growth inhibition of human SF295 cells; format: functional
Pseudomonas aeruginosa = assay: Antibacterial activity against Pseudomonas aeruginosa; format: functional
[2] = Inhibition of human serum classical complement system assessed as modulation of complement pathway by classical hemolytic complement assay
Bacillus cereus = assay: Antibacterial activity against Bacillus cereus; format: functional
Aspergillus niger = assay: Antifungal activity against Aspergillus niger; format: functional
[3] = Inhibition of human serum alternative complement system assessed as modulation of complement pathway by alternative hemolytic complement assay
Escherichia coli = assay: Antibacterial activity against Escherichia coli; format: functional
Staphylococcus aureus = assay: Antibacterial activity against Staphylococcus aureus; format: functional
[4] = Inhibition of human serum classical complement system assessed as modulation of complement pathway at 420 uM by classical hemolytic complement assay

SMILES	GI50 [1] [µM]	TGI [1] [µM]	MIC (Candida albicans) [mg/L]	MIC (Trichophyton rubrum) [mg/L]	Activity (Human alphaherpesvirus 1)	GI50 (SF-295) [µM]	MIC (Pseudomonas aeruginosa) [mg/L]	Activity [2]	IC50 [2] [µM]	MIC (Bacillus cereus) [mg/L]	MIC (Aspergillus niger) [mg/L]	Activity [3]	IC50 [3] [µM]	MIC (Escherichia coli) [mg/L]	MIC (Staphylococcus aureus) [mg/L]	inhibition [4] [%]
CC(C)C1=CC(=O)[C@](C)([C@H]2[C@H](O)C[C@@]3(C)[C@@H]4CC=C5[C@@H](CC[C@@H](O[C@@H]6OC[C@@H](O)[C@H](O)[C@H]6O[C@@H]6O[C@@H](C)[C@H](O)[C@@H](O)[C@H]6O)C5(C)C)[C@]4(C)C(=O)C[C@]23C)O1 [PICFELTARRACEMIN IA]	> 100	> 100	> 100	> 100	Active	59	> 100	Dose-dependent effect	95	> 100	> 100	Dose-dependent effect	336	> 100	> 100	
CC(C)C1=CC(=O)[C@](C)([C@H]2[C@H](O)C[C@@]3(C)[C@@H]4CC=C5[C@@H](CC[C@@H](O[C@@H]6OC[C@@H](O)[C@H](O[C@@H]7O[C@H](CO)[C@@H](O)[C@H](O)[C@H]7O[C@@H]7O[C@@H](C)[C@H](O)[C@@H](O)[C@H]7O)[C@H]6O)C5(C)C)[C@]4(C)C(=O)C[C@]23C)O1 [PICFELTARRACEMIN IV]			> 100	> 100	Active		> 100	Dose-dependent effect	131	> 100	> 100	Dose-dependent effect	313	> 100	> 100	
CC(C)C1=CC(=O)[C@](C)([C@H]2[C@H](O)C[C@@]3(C)[C@@H]4CC=C5[C@@H](CC[C@@H](O[C@@H]6OC[C@@H](O)[C@H](O)[C@H]6O)C5(C)C)[C@]4(C)C(=O)C[C@]23C)O1 [PICFELTARRACEMIN VI]			> 100	> 100	Active		> 100	Dose-dependent effect	29	> 100	> 100	Dose-dependent effect	21	> 100	> 100	
CC(C)C1=CC(=O)[C@](C)([C@H]2[C@H](O)C[C@@]3(C)[C@@H]4CC=C5[C@@H](CC[C@@H](O[C@@H]6O[C@H](CO)[C@@H](O)[C@H](O)[C@H]6O[C@@H]6O[C@@H](C)[C@H](O)[C@@H](O)[C@H]6O)C5(C)C)[C@]4(C)C(=O)C[C@]23C)O1 [PICFELTARRACEMIN IB]	> 100	> 100	> 100	> 100	Active		> 100	Dose-dependent effect	> 420	> 100	> 100	Dose-dependent effect	68	> 100	> 100	48
O=C(/C=C/c1ccc(O)c(O)c1)O[C@H](Cc1ccc(O)c(O)c1)C(=O)O [ROSMARINIC ACID]									81				408			
